Reference: patent US10765114B2, “4-amino-6-(pyridyl and 2-substitutedphenyl)-picolinates and 6-amino-2-(pyridyl and 2-substitutedphenyl)-pyrimidine-4-carboxylates and their use as herbicides” (Dow AgroSciences LLC, priority 2013, dated 2020)

system: Key Broadleaf Weed and Crop Species; experiment: Post-Emergent Test II (Table 5); type: in vivo; settings: Abutilon theophrasti, post-emergence, 336 h, ABUTH: velvetleaf (Abutilon theophrasti), application rate 70 (kg ai/ha; footnote: g ai/ha), read-out: Visual Growth Reduction (%) 14 Days After Application ABUTH
How it was run: (§1)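 Growth stage at treatment: first or second true leaf. Application: compound in acetone/DMSO diluted into an adjuvant-containing aqueous mix, sprayed at 187 L/ha at several rates. Assessment: visual 0-100% injury at 14 days against untreated plants.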

SMILES	pest or weed control at 70 g/ha [%]
COC(=O)c1nc(-c2ccc(OC(F)F)nc2)c(F)c(N)c1Cl [Compound 71]	85 to 94

same assay, conditions: Abutilon theophrasti, post-emergence, 336 h, ABUTH: velvetleaf (Abutilon theophrasti), application rate 140 (kg ai/ha; footnote: g ai/ha), read-out: Visual Growth Reduction (%) 14 Days After Application ABUTH

SMILES	pest or weed control at 140 g/ha [%]
COC(=O)c1nc(-c2ccc(OC(F)F)nc2)c(F)c(N)c1Cl [Compound 71]	85 to 94

same assay, conditions: Amaranthus retroflexus, post-emergence, 336 h, AMARE: redroot pigweed (Amaranthus retroflexus), application rate 70 (kg ai/ha; footnote: g ai/ha), read-out: Visual Growth Reduction (%) 14 Days After Application AMARE

SMILES	pest or weed control at 70 g/ha [%]
COC(=O)c1nc(-c2ccc(OC(F)F)nc2)c(F)c(N)c1Cl [Compound 71]	0 to 29

same assay, conditions: Amaranthus retroflexus, post-emergence, 336 h, AMARE: redroot pigweed (Amaranthus retroflexus), application rate 140 (kg ai/ha; footnote: g ai/ha), read-out: Visual Growth Reduction (%) 14 Days After Application AMARE

SMILES	pest or weed control at 140 g/ha [%]
COC(=O)c1nc(-c2ccc(OC(F)F)nc2)c(F)c(N)c1Cl [Compound 71]	0 to 29

same assay, conditions: Brassica napus, post-emergence, 336 h, BRSSS: oilseed rape, canola (Brassica napus), application rate 70 (kg ai/ha; footnote: g ai/ha), read-out: Visual Growth Reduction (%) 14 Days After Application BRSSS

SMILES	pest or weed control at 70 g/ha [%]
COC(=O)c1nc(-c2ccc(OC(F)F)nc2)c(F)c(N)c1Cl [Compound 71]	30 to 44

same assay, conditions: Brassica napus, post-emergence, 336 h, BRSSS: oilseed rape, canola (Brassica napus), application rate 140 (kg ai/ha; footnote: g ai/ha), read-out: Visual Growth Reduction (%) 14 Days After Application BRSSS

SMILES	pest or weed control at 140 g/ha [%]
COC(=O)c1nc(-c2ccc(OC(F)F)nc2)c(F)c(N)c1Cl [Compound 71]	45 to 59

same assay, conditions: Chenopodium album, post-emergence, 336 h, CHEAL: lambsquarters (Chenopodium album), application rate 70 (kg ai/ha; footnote: g ai/ha), read-out: Visual Growth Reduction (%) 14 Days After Application CHEAL

SMILES	pest or weed control at 70 g/ha [%]
COC(=O)c1nc(-c2ccc(OC(F)F)nc2)c(F)c(N)c1Cl [Compound 71]	85 to 94

same assay, conditions: Chenopodium album, post-emergence, 336 h, CHEAL: lambsquarters (Chenopodium album), application rate 140 (kg ai/ha; footnote: g ai/ha), read-out: Visual Growth Reduction (%) 14 Days After Application CHEAL

SMILES	pest or weed control at 140 g/ha [%]
COC(=O)c1nc(-c2ccc(OC(F)F)nc2)c(F)c(N)c1Cl [Compound 71]	85 to 94

same assay, conditions: Euphorbia heterophylla, post-emergence, 336 h, EPHHL: wild poinsettia (Euphorbia heterophylla), application rate 70 (kg ai/ha; footnote: g ai/ha), read-out: Visual Growth Reduction (%) 14 Days After Application EPHHL

SMILES	pest or weed control at 70 g/ha [%]
COC(=O)c1nc(-c2ccc(OC(F)F)nc2)c(F)c(N)c1Cl [Compound 71]	95 to 100

same assay, conditions: Euphorbia heterophylla, post-emergence, 336 h, EPHHL: wild poinsettia (Euphorbia heterophylla), application rate 140 (kg ai/ha; footnote: g ai/ha), read-out: Visual Growth Reduction (%) 14 Days After Application EPHHL

SMILES	pest or weed control at 140 g/ha [%]
COC(=O)c1nc(-c2ccc(OC(F)F)nc2)c(F)c(N)c1Cl [Compound 71]	95 to 100

same assay, conditions: Helianthus annuus, post-emergence, 336 h, HELAN: sunflower (Helianthus annuus), application rate 70 (kg ai/ha; footnote: g ai/ha), read-out: Visual Growth Reduction (%) 14 Days After Application HELAN

SMILES	pest or weed control at 70 g/ha [%]
COC(=O)c1nc(-c2ccc(OC(F)F)nc2)c(F)c(N)c1Cl [Compound 71]	85 to 94

same assay, conditions: Helianthus annuus, post-emergence, 336 h, HELAN: sunflower (Helianthus annuus), application rate 140 (kg ai/ha; footnote: g ai/ha), read-out: Visual Growth Reduction (%) 14 Days After Application HELAN

SMILES	pest or weed control at 140 g/ha [%]
COC(=O)c1nc(-c2ccc(OC(F)F)nc2)c(F)c(N)c1Cl [Compound 71]	85 to 94

same assay, conditions: Viola tricolor, post-emergence, 336 h, VIOTR: wild pansy (Viola tricolor), application rate 70 (kg ai/ha; footnote: g ai/ha), read-out: Visual Growth Reduction (%) 14 Days After Application VIOTR

SMILES	pest or weed control at 70 g/ha [%]
COC(=O)c1nc(-c2ccc(OC(F)F)nc2)c(F)c(N)c1Cl [Compound 71]	0 to 29

same assay, conditions: Viola tricolor, post-emergence, 336 h, VIOTR: wild pansy (Viola tricolor), application rate 140 (kg ai/ha; footnote: g ai/ha), read-out: Visual Growth Reduction (%) 14 Days After Application VIOTR

SMILES	pest or weed control at 140 g/ha [%]
COC(=O)c1nc(-c2ccc(OC(F)F)nc2)c(F)c(N)c1Cl [Compound 71]	0 to 29

system: Key Grass and Sedge Weeds as well as Grass Crops; experiment: Post-Emergent Test II (Table 6); type: in vivo; settings: post-emergence, 336 h, CYPSS, 70 g ai/ha, 14 days after application, read-out: Visual Growth Reduction (%) 14 Days After Application CYPSS
How it was run: as §1

SMILES	pest or weed control at 70 g/ha [%]
COC(=O)c1nc(-c2ccc(OC(F)F)nc2)c(F)c(N)c1Cl [Compound 71]	0 to 29

same assay, conditions: post-emergence, 336 h, CYPSS, 140 g ai/ha, 14 days after application, read-out: Visual Growth Reduction (%) 14 Days After Application CYPSS

SMILES	pest or weed control at 140 g/ha [%]
COC(=O)c1nc(-c2ccc(OC(F)F)nc2)c(F)c(N)c1Cl [Compound 71]	45 to 59

same assay, conditions: post-emergence, 336 h, DIGSA: crabgrass (Digitaria sanguinalis), 70 g ai/ha, 14 days after application, read-out: Visual Growth Reduction (%) 14 Days After Application DIGSA

SMILES	pest or weed control at 70 g/ha [%]
COC(=O)c1nc(-c2ccc(OC(F)F)nc2)c(F)c(N)c1Cl [Compound 71]	75 to 84

same assay, conditions: post-emergence, 336 h, DIGSA: crabgrass (Digitaria sanguinalis), 140 g ai/ha, 14 days after application, read-out: Visual Growth Reduction (%) 14 Days After Application DIGSA

SMILES	pest or weed control at 140 g/ha [%]
COC(=O)c1nc(-c2ccc(OC(F)F)nc2)c(F)c(N)c1Cl [Compound 71]	60 to 74

same assay, conditions: post-emergence, 336 h, ECHSS, 70 g ai/ha, 14 days after application, read-out: Visual Growth Reduction (%) 14 Days After Application ECHSS

SMILES	pest or weed control at 70 g/ha [%]
COC(=O)c1nc(-c2ccc(OC(F)F)nc2)c(F)c(N)c1Cl [Compound 71]	60 to 74

same assay, conditions: post-emergence, 336 h, ECHSS, 140 g ai/ha, 14 days after application, read-out: Visual Growth Reduction (%) 14 Days After Application ECHSS

SMILES	pest or weed control at 140 g/ha [%]
COC(=O)c1nc(-c2ccc(OC(F)F)nc2)c(F)c(N)c1Cl [Compound 71]	75 to 84

same assay, conditions: post-emergence, 336 h, ORYSS (crop), 70 g ai/ha, 14 days after application, read-out: Visual Growth Reduction (%) 14 Days After Application ORYSS

SMILES	pest or weed control at 70 g/ha [%]
COC(=O)c1nc(-c2ccc(OC(F)F)nc2)c(F)c(N)c1Cl [Compound 71]	0 to 29

same assay, conditions: post-emergence, 336 h, ORYSS (crop), 140 g ai/ha, 14 days after application, read-out: Visual Growth Reduction (%) 14 Days After Application ORYSS

SMILES	pest or weed control at 140 g/ha [%]
COC(=O)c1nc(-c2ccc(OC(F)F)nc2)c(F)c(N)c1Cl [Compound 71]	0 to 29

same assay, conditions: post-emergence, 336 h, SETFA: giant foxtail (Setaria faberi), 70 g ai/ha, 14 days after application, read-out: Visual Growth Reduction (%) 14 Days After Application SETFA

SMILES	pest or weed control at 70 g/ha [%]
COC(=O)c1nc(-c2ccc(OC(F)F)nc2)c(F)c(N)c1Cl [Compound 71]	75 to 84

same assay, conditions: post-emergence, 336 h, SETFA: giant foxtail (Setaria faberi), 140 g ai/ha, 14 days after application, read-out: Visual Growth Reduction (%) 14 Days After Application SETFA

SMILES	pest or weed control at 140 g/ha [%]
COC(=O)c1nc(-c2ccc(OC(F)F)nc2)c(F)c(N)c1Cl [Compound 71]	85 to 94

same assay, conditions: post-emergence, 336 h, SORVU: grain sorghum (Sorghum vulgare), 70 g ai/ha, 14 days after application, read-out: Visual Growth Reduction (%) 14 Days After Application SORVU

SMILES	pest or weed control at 70 g/ha [%]
COC(=O)c1nc(-c2ccc(OC(F)F)nc2)c(F)c(N)c1Cl [Compound 71]	60 to 74

same assay, conditions: post-emergence, 336 h, SORVU: grain sorghum (Sorghum vulgare), 140 g ai/ha, 14 days after application, read-out: Visual Growth Reduction (%) 14 Days After Application SORVU

SMILES	pest or weed control at 140 g/ha [%]
COC(=O)c1nc(-c2ccc(OC(F)F)nc2)c(F)c(N)c1Cl [Compound 71]	75 to 84

same assay, conditions: post-emergence, 336 h, TRZSS (crop), 70 g ai/ha, 14 days after application, read-out: Visual Growth Reduction (%) 14 Days After Application TRZSS

SMILES	pest or weed control at 70 g/ha [%]
COC(=O)c1nc(-c2ccc(OC(F)F)nc2)c(F)c(N)c1Cl [Compound 71]	45 to 59

same assay, conditions: post-emergence, 336 h, TRZSS (crop), 140 g ai/ha, 14 days after application, read-out: Visual Growth Reduction (%) 14 Days After Application TRZSS

SMILES	pest or weed control at 140 g/ha [%]
COC(=O)c1nc(-c2ccc(OC(F)F)nc2)c(F)c(N)c1Cl [Compound 71]	45 to 59

same assay, conditions: post-emergence, 336 h, ZEAMX: maize, corn (Zea mays), 70 g ai/ha, 14 days after application, read-out: Visual Growth Reduction (%) 14 Days After Application ZEAMX

SMILES	pest or weed control at 70 g/ha [%]
COC(=O)c1nc(-c2ccc(OC(F)F)nc2)c(F)c(N)c1Cl [Compound 71]	0 to 29

same assay, conditions: post-emergence, 336 h, ZEAMX: maize, corn (Zea mays), 140 g ai/ha, 14 days after application, read-out: Visual Growth Reduction (%) 14 Days After Application ZEAMX

SMILES	pest or weed control at 140 g/ha [%]
COC(=O)c1nc(-c2ccc(OC(F)F)nc2)c(F)c(N)c1Cl [Compound 71]	60 to 74

system: not given; experiment: not given; settings: not given

melting point [°C]	SMILES
134 to 136	COC(=O)c1nc(-c2ccc(OC(F)F)nc2)c(F)c(N)c1Cl [Compound 71]
